Format in all cases: biochemical
One assay concerns the target T1, PDE9A (Homo sapiens, UniProt O76083).
T1 construct: full-length human PDE1A (NP_001003683.1), PDE1C (NP_005011.1), PDE5A (NP_001074.2), PDE7B (NP_061818.1) and PDE9A (NP_002597.1); His (N); made in house; host or cells: Sf9 (baculovirus, pFastBac1)
As to the kind of experiment: PDE enzyme assay using [3H]cGMP as substrate, PDE9A. As to conditions: [3H]cGMP 20 nM; enzyme 1 nM; read-out: IC50 (nM) of Example 1, PDE9A. From the text:
(§1) The nucleotide sequences encoding full-length human PDE1A (NP_001003683.1), PDE1C (NP_005011.1), PDE5A (NP_001074.2), PDE7B (NP_061818.1) and PDE9A (NP_002597.1) are inserted into pFastBac1 (Invitrogen) vector with an N-terminal HIS tag. The nucleotide sequences encoding full-length human PDE4D (NP_006194.2) and catalytic domain (residue 641-1141) of PDE3A (NP_000912.3) are inserted into pFastBac1 (Invitrogen) vector with a C-terminal HIS tag. The nucleotide sequences encoding full-length human PDE8A (NP_002596.1) and PDE11A (AAI12394.1) are inserted into pFastBac1 (Invitrogen) vector with an N-terminal Flag tag. The nucleotide sequences encoding full-length human PDE10A (AAD32595.1) are inserted into pFastBac1 (Invitrogen) vector with a C-terminal Flag-His tag. […]
(§2) All 3′, 5′ cyclic nucleotide phosphodiesterase (PDE) enzyme activities are measured with a radiometric enzyme assay based on SPA detection system (scintillation proximity assay). […] Samples are read 12 hours later in a MICROBETA™ TRILUX® Counter. […] IC50 values are calculated by plotting the normalized data vs. log [compound] and fitting the data using a four parameter logistic equation.
(§3) The following phosphodiesterase activities are measured using [^3H]cGMP as reaction substrate: PDE2A, PDE5A, PDE6A/6B, PDE9A, PDE10A and PDE11A. […]

A further assay concerns the target T2, PDE5A (Homo sapiens, UniProt O76074).
T2 construct: full-length human PDE1A (NP_001003683.1), PDE1C (NP_005011.1), PDE5A (NP_001074.2); His (N); made in house; host or cells: Sf9 (baculovirus, pFastBac1)
As to the kind of experiment: PDE enzyme assay using [3H]cGMP as substrate, PDE5A. As to conditions: [3H]cGMP 80 nM; enzyme 0.002 nM; read-out: IC50 (nM) of Example 1, PDE5A.
Excerpt: as §1, §2, §3

A further assay concerns the target T3, PDE1B (Homo sapiens, UniProt Q01064).
T3 construct: full-length human PDE1B (NP_000915.1); His (C); made in house; host or cells: Sf9 (pIEX4)
As to the kind of experiment: Ca2+-calmodulin dependent PDE enzyme assay (SPA), PDE1B. As to conditions: [3H]cAMP 47 nM; enzyme 0.074 nM; Ca2+/calmodulin buffer pH 7.5; read-out: IC50 (nM) of Example 1, PDE 1B. From the text:
(§4) The nucleotide sequences encoding full-length human PDE1A (NP_001003683.1), PDE1C (NP_005011.1), PDE5A (NP_001074.2), PDE7B (NP_061818.1) and PDE9A (NP_002597.1) are inserted into pFastBac1 (Invitrogen) vector with an N-terminal HIS tag. The nucleotide sequences encoding full-length human PDE4D (NP_006194.2) and catalytic domain (residue 641-1141) of PDE3A (NP_000912.3) are inserted into pFastBac1 (Invitrogen) vector with a C-terminal HIS tag. The nucleotide sequences encoding full-length human PDE8A (NP_002596.1) and PDE11A (AAI12394.1) are inserted into pFastBac1 (Invitrogen) vector with an N-terminal Flag tag. The nucleotide sequences encoding full-length human PDE10A (AAD32595.1) are inserted into pFastBac1 (Invitrogen) vector with a C-terminal Flag-His tag. The nucleotide sequences encoding full-length human PDE6A (NP_000431.2) and PDE6B (AAH00249.1) are inserted into pFastBacDual (Invitrogen) vector with an N-terminal HIS tag and N-terminal Flag tag, respectively, for production of PDE6A/6B dimer. […]
(§5) All 3′, 5′ cyclic nucleotide phosphodiesterase (PDE) enzyme activities are measured with a radiometric enzyme assay based on SPA detection system (scintillation proximity assay). […] Samples are read 12 hours later in a MICROBETA™ TRILUX® Counter. […] IC50 values are calculated by plotting the normalized data vs. log [compound] and fitting the data using a four parameter logistic equation. […]

In the next assay the target is T4, PDE11A (Homo sapiens, UniProt Q9HCR9).
T4 construct: full-length human PDE8A (NP_002596.1) and PDE11A (AAI12394.1); Flag (N); made in house; host or cells: Sf9 (baculovirus, pFastBac1)
As to the kind of experiment: PDE enzyme assay using [3H]cGMP as substrate, PDE11A. As to conditions: [3H]cGMP 80 nM; enzyme 0.03 nM; read-out: IC50 (nM) of Example 1, PDE11A.
Excerpt: as §1, §2, §3

The target of the next assay is T5, PDE4D (Homo sapiens, UniProt Q08499).
T5 construct: full-length human PDE4D (NP_006194.2); His (C); made in house; host or cells: Sf9 (baculovirus, pFastBac1)
T5 sequence (Q08499 1-673 isoform Q08499-2): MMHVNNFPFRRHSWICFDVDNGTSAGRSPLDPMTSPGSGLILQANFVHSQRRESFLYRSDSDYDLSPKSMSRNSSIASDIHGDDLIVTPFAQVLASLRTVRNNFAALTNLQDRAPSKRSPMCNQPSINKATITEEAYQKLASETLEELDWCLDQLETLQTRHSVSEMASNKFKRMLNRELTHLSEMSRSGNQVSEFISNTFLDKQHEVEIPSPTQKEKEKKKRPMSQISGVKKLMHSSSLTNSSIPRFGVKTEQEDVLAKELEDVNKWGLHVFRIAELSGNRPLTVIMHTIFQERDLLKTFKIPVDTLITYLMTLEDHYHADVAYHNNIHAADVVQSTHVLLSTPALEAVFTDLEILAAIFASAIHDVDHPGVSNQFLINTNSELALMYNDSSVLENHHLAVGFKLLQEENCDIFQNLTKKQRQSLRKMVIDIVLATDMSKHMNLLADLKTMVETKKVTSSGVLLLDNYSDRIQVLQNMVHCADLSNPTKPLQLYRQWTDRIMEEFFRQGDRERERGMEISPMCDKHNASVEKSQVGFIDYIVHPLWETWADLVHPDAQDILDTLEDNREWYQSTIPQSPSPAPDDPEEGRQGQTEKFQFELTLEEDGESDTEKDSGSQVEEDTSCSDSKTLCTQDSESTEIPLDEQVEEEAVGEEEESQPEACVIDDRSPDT
As to the kind of experiment: PDE enzyme assay using [3H]cAMP as substrate, PDE4D. As to conditions: [3H]cAMP 47 nM; enzyme 0.021 nM; read-out: IC50 (nM) of Example 1, PDE4D.
Excerpt: as §1, §2
(§6) The following phosphodiesterase activities are measured using [^3H]cAMP as reaction substrate: PDE3A (catalytic domain), PDE4D, PDE7B and PDE8A. […]

The next assay addresses T6, PDE1C (Homo sapiens, UniProt Q14123).
T6 construct: full-length human PDE1A (NP_001003683.1), PDE1C (NP_005011.1); His (N); made in house; host or cells: Sf9 (baculovirus, pFastBac1)
As to the kind of experiment: Ca2+-calmodulin dependent PDE enzyme assay (SPA), PDE1C. As to conditions: [3H]cAMP 47 nM; enzyme 0.0012 nM; Ca2+/calmodulin buffer pH 7.5; read-out: IC50 (nM) of Example 1, PDE 1C.
Excerpt: as §4, §5

The next assay concerns the target T7, PDE2A (Homo sapiens, UniProt O00408).
T7 construct: full-length human PDE1B (NP_000915.1) and PDE2A (NP_002590.1); His (C); made in house; host or cells: Sf9 (pIEX4)
Briefly: PDE enzyme assay using [3H]cGMP as substrate, PDE2A. As to conditions: [3H]cGMP 80 nM; enzyme 0.2 nM; read-out: IC50 (nM) of Example 1, PDE2A.
Excerpt: as §1, §2, §3

For the next assay, the target named is T8, PDE8A (Homo sapiens, UniProt O60658).
T8 construct: full-length human PDE8A (NP_002596.1); Flag (N); made in house; host or cells: Sf9 (baculovirus, pFastBac1)
T8 sequence (O60658 whole entry): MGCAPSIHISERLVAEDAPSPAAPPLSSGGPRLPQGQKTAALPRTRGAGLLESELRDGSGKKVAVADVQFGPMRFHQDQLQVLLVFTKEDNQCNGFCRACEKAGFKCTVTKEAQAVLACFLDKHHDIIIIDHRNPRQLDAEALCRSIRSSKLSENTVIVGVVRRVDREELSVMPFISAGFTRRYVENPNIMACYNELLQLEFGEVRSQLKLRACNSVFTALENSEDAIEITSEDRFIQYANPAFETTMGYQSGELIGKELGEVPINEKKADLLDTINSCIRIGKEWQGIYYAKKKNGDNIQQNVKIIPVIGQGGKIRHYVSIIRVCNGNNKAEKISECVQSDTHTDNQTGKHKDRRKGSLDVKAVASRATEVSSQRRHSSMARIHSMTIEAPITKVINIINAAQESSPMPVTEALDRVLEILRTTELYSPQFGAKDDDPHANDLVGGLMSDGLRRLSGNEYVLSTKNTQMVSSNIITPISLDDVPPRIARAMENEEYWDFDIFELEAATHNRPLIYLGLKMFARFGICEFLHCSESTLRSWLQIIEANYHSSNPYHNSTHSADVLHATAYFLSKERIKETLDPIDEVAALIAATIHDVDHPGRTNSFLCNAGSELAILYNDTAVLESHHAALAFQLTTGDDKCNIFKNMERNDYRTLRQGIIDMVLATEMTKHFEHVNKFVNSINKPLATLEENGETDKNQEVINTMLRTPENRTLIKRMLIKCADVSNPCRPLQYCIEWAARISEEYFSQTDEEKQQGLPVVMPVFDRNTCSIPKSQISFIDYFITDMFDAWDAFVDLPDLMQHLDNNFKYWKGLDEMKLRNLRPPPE
As to the kind of experiment: PDE enzyme assay using [3H]cAMP as substrate, PDE8A. As to conditions: [3H]cAMP 47 nM; enzyme 0.06 nM; read-out: IC50 (nM) of Example 1, PDE8A.
Excerpt: as §1, §2, §6

In a further assay the target is T9, PDE10A (Homo sapiens, UniProt Q9Y233).
T9 construct: full-length human PDE10A (AAD32595.1); Flag-His (C); made in house; host or cells: Sf9 (baculovirus, pFastBac1)
T9 sequence (Q9Y233 1-779 isoform Q9Y233-1): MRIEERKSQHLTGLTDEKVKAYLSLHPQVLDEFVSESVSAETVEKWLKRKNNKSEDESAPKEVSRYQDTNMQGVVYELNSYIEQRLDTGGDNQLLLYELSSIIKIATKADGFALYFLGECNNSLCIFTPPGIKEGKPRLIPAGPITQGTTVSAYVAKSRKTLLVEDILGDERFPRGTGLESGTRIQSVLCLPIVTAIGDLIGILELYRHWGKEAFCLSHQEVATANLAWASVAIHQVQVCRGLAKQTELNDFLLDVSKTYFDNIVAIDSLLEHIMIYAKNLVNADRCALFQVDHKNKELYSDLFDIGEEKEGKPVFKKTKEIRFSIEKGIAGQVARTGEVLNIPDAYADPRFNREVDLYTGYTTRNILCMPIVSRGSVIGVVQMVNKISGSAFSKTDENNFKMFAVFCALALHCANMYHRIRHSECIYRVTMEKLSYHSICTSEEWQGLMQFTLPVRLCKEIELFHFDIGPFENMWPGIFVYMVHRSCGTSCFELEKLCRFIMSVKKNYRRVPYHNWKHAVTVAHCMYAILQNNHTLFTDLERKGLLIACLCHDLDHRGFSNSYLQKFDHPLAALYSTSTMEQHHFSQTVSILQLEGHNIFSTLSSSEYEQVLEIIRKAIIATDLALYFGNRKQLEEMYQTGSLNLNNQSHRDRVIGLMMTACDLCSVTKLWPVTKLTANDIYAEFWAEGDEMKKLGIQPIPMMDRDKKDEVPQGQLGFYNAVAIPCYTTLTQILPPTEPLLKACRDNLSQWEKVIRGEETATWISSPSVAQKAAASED
As to the kind of experiment: PDE enzyme assay using [3H]cGMP as substrate, PDE10A. As to conditions: [3H]cGMP 80 nM; enzyme 0.03 nM; read-out: IC50 (nM) of Example 1, PDE10A.
Excerpt: as §1, §2, §3

For another assay, the target named is T10, PDE7B (Homo sapiens, UniProt Q9NP56).
T10 construct: full-length human PDE1A (NP_001003683.1), PDE1C (NP_005011.1), PDE5A (NP_001074.2), PDE7B (NP_061818.1); His (N); made in house; host or cells: Sf9 (baculovirus, pFastBac1)
T10 sequence (Q9NP56 whole entry): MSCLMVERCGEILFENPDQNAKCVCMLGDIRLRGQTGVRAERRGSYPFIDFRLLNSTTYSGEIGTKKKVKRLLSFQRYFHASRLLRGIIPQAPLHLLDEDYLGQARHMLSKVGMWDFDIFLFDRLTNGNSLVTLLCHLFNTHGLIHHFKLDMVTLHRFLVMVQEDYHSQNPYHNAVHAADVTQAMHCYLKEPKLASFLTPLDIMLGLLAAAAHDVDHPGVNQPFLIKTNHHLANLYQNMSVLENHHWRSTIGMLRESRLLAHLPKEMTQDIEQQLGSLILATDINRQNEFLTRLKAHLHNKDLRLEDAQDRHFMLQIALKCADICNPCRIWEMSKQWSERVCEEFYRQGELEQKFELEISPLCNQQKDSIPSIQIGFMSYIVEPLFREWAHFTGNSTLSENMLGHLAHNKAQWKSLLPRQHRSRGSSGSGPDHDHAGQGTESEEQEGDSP
As to the kind of experiment: PDE enzyme assay using [3H]cAMP as substrate, PDE7B. As to conditions: [3H]cAMP 47 nM; enzyme 0.5 nM; read-out: IC50 (nM) of Example 1, PDE7B.
Excerpt: as §1, §2, §6

The target in another assay is T11, PDE1A (Homo sapiens, UniProt P54750).
T11 construct: full-length human PDE1A (NP_001003683.1); His (N); made in house; host or cells: Sf9 (baculovirus, pFastBac1)
As to the kind of experiment: Ca2+-calmodulin dependent PDE enzyme assay (SPA), PDE1A. As to conditions: [3H]cAMP 47 nM; enzyme 0.25 nM; Ca2+/calmodulin buffer pH 7.5; read-out: IC50 (nM) of Example 1, PDE 1A.
Excerpt: as §4, §5

A further assay concerns the target T12, PDE6AB (PDE6A/6B dimer) (Homo sapiens, UniProt P16499+P35913).
T12 construct: full-length human PDE6A (NP_000431.2); full-length human PDE6A (NP_000431.2) and PDE6B (AAH00249.1); His (N); Flag (N); made in house; host or cells: Sf9 (baculovirus, pFastBacDual)
As to the kind of experiment: PDE enzyme assay using [3H]cGMP as substrate, PDE6AB. As to conditions: [3H]cGMP 80 nM; enzyme 5 nM; read-out: IC50 (nM) of Example 1, PDE 6AB.
Excerpt: as §1, §2, §3

For another assay, the target named is T13, PDE3A (catalytic domain) (Homo sapiens, UniProt Q14432).
T13 construct: catalytic domain (residue 641-1141) of PDE3A (NP_000912.3); His (C); made in house; host or cells: Sf9 (baculovirus, pFastBac1)
T13 sequence (Q14432 641-1141): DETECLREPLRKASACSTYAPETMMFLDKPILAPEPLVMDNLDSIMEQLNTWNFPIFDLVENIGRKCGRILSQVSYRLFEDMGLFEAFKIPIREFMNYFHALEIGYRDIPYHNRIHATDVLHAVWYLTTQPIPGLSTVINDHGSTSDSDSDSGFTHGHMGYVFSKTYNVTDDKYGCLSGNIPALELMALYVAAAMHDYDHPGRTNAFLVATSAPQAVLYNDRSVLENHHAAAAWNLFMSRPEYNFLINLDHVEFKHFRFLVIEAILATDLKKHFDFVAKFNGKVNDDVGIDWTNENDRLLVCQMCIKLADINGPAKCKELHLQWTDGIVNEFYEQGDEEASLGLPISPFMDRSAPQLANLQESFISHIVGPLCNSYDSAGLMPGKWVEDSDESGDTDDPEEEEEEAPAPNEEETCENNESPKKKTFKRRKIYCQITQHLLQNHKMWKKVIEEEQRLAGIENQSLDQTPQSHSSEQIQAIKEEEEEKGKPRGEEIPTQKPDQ
Briefly: PDE enzyme assay using [3H]cAMP as substrate, PDE3A. As to conditions: [3H]cAMP 47 nM, enzyme 0.008 nM, read-out: IC50 (nM) of Example 1, PDE3A.
Excerpt: as §1, §2, §6

T12 sequence (P16499 whole entry): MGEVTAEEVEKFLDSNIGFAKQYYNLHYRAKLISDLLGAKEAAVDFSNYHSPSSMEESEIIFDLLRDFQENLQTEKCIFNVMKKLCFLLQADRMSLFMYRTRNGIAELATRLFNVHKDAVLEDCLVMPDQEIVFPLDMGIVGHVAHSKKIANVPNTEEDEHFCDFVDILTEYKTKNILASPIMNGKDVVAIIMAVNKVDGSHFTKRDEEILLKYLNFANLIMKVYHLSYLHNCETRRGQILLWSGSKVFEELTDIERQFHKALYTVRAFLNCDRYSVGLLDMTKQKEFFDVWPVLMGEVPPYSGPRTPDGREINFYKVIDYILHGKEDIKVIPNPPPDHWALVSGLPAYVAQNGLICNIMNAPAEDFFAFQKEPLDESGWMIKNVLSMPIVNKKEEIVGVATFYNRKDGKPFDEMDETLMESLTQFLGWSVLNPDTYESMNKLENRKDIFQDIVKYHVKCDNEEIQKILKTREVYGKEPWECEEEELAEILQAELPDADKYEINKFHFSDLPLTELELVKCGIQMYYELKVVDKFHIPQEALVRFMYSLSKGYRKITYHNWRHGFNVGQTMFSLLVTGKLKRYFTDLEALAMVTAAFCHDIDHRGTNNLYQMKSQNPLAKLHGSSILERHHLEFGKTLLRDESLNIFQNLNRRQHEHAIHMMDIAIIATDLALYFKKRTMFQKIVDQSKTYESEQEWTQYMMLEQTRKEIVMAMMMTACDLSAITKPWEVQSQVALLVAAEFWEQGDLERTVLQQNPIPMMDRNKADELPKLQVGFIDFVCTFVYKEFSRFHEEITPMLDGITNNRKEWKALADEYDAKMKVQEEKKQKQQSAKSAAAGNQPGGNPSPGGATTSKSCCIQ
T12 sequence (P35913 1-853 isoform P35913-2): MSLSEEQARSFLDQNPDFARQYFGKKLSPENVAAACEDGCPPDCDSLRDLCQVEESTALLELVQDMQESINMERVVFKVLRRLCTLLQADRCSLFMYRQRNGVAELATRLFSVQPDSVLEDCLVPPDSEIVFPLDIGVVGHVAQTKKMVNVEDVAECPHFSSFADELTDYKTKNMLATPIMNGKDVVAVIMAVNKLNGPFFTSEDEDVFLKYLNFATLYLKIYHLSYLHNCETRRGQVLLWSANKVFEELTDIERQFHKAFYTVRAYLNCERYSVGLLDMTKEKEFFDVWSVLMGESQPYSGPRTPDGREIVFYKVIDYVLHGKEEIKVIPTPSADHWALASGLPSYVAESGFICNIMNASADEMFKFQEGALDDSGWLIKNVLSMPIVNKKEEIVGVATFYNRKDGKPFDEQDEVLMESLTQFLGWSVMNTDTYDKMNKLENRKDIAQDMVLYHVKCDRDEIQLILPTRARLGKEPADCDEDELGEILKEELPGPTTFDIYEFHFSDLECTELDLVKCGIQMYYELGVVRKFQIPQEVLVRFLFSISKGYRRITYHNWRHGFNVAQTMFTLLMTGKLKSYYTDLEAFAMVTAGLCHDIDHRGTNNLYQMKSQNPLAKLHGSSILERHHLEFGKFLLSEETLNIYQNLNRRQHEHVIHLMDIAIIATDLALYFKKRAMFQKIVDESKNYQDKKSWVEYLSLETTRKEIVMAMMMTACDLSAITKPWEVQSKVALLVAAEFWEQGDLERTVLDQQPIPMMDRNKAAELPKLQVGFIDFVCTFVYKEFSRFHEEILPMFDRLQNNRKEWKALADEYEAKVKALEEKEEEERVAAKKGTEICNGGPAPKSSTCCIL

In the case of `O=c1c2nnc(C3(C4CC4)CC3)n2c2c(n1CC1CC1)CCCC2` [Example 1, 1-(1-cyclopropylcyclopropyl)-5-(cyclopropylmethyl)-6,7,8,9-tetrahydro-[1,2,4]triazolo[4,3-a]quinoxalin-4-one], the 50% inhibitory concentration (IC50) was over 10000 nM on PDE9A; over 10000 nM on PDE5A; 4.91 nM at PDE1B; 2970 nM at PDE11A; 7060 nM at PDE4D; 3.05 nM at PDE1C. In addition, the half-maximal inhibitory concentration (IC50) on PDE2A is over 10000 nM; at PDE8A, over 10000 nM; on PDE10A, over 10000 nM; at PDE7B, 2180 nM; on PDE1A, 3.41 nM; at PDE6AB (PDE6A/6B dimer), over 10000 nM. Besides, the 50% inhibitory concentration (IC50) on PDE3A (catalytic domain) is over 100000 nM.

What is called IC50 is the concentration that inhibits the measured activity by half.

The record behind these values is US10112951B2, “PDE1 inhibitor” (Eli Lilly and Company, priority 2016, dated 2018).
